Measurements published in patent publication US4579867A, “Stable pharmaceutical compositions of short-acting β-adrenergic receptor blocking agents” (American Hospital Supply Corporation, priority 1984, dated 1986).
Values after ≈ are worked out from the molar mass of the structure shown. Values joined by “and” are separate entries in the source; they are usually repeats but may differ in a detail not shown here. Equal entries are not always repeated. Where two headings read alike, the source gives them in different places.

Tests used:
β-adrenergic receptor = test: β-blocking activity and recovery from β-blockade in anesthetized dogs (isoproterenol heart rate response, 3-hour infusion); assay type: in vivo; details: for Potency: 3-hour infusion, rate adjusted to about 50% isoproterenol inhibition, pentobarbital-anesthetized dogs; for % I (percent inhibition of heart rate response to isoproterenol): end of 3-hour infusion, isoproterenol 0.5 μg/kg; for Recovery Time 50%: 50% recovery from β-blockade after termination of infusion
Protocol: The duration of β-blockade was determined in vivo using pentobarbital-anesthetized dogs instrumented for measurement of heart rate using a Beckman cardiotachometer triggered electronically by a phasic aortic blood pressure signal. Both vagus nerves were severed in the cervical region and the animals were mechanically ventilated. The experimental design used employed a 3-hour infusion of test compound. Bolus doses of isoproterenol (0.5 μg/kg) were used to assess the degree of β-blockade and recovery from β-blockade after […] of the infusion. The doses were spaced at 10-minute intervals and were given before, during and following the infusion of test compounds. The infusion rate was adjusted so that at the end of the 3-hour infusion period the degree of isoproterenol inhibition averaged about 50% of control.

[1] = Solubility in various vehicles (HPLC); assay type: physicochemical
Protocol: Initially, the solubility of the compound was determined in various vehicles. The amount dissolved was measured by HPLC (Table 2). […] Based on this acidic nature, a tartrate buffer was selected. It was foun that the molar ratio of active β-blocking agent to buffer was critical, 1:1 to 3:1 to stabilized product.
Samples were dissolved or diluted with the mobile phase, methanol--pH 3.4 phosphate buffer solution. The resulting solutions were diluted with benzoic acid internal standard solution and chromatographed on a octadecyl silane column with detection at 229 nm. […] The method is linear, quantitative, rugged and reproducible with a sensitivity of 2 ug/ml. Either peak height or peak area ratios can be used for quantitation.

[2] = Comparison of degradation in aqueous solution and in the formulation (forced degradation, HPLC); assay type: physicochemical; details: 75° C.; for degraded at 168 h: one week
Protocol: The sulfate salt of the compound of Formula II in aqueous solution when stored at 75° C. degraded about 70% in one week. In contrast, when formulated in the pharmaceutical composition as noted and placed under the same storage conditions, it degraded only about 25%.
The results of this comparison are represented in FIG. 5. Samples for the study were prepared and tested as follows:
b. Aqueous at 75° C.--10 mg of sulfate salt of Formula II were dissolved in 100 mL of deionized water. A 2 mL portion of this solution was transferred to a vial and placed in a 75° C. oven. A series of vials were prepared and evaluated at various intervals. Each time 2 mL of mobile phase was added to the vial (final conc. 50 μg/mL) for subsequent HPLC evaluation. The results are plotted as curve B in FIG. 5.
c. Forced Degradation of the Formulation was carried out using a solution containing the sulfate salt of Formula II, 100 mg/mL, in Acetate Buffer (0.35M) containing 20% of Propylene Glycol:Ethanol (50:50) having a pH 3.17. The formulation solution was divided into 2 parts, placed in 55° C. and 75° C. ovens and tested periodically. To evaluate the formulation, the solution was diluted 1 mL to 100 mL of mobile phase, then 5 mL to 100 mL in mobile phase (final conc.--50 μg/mL) for subsequent HPLC evaluation.
The rates of decomposition were monitored by HPLC and compared to the respective initial concentrations at 220 nm. In order to insure that the peak was that of the sulfate salt and not an impurity, excipient or product of decomposition, the peak was scanned using a variable wavelength detector ([…]). Using the Perkin-Elmer LC-75 Detector Stop Flow System described below:
A 70 μL portion of the sulfate salt degraded samples were injected manually into the HPLC L-75 equipped with a variable wavelength detector, programmed to scan wavelengths from 200 to 320 nm. When the sulfate salt reached the detector cell, the flow of mobile phase was stopped and the scan initiated from 200 to 320 nm. In this manner, only the peak corresponding to the sulfate salt was measured.

[3] = Shelf life / storage stability of solutions; assay type: physicochemical; details: within a week; room temperature; without stabilization; read-out: potency loss
[4] = Kinetic degradation study in solution at 75° C.; assay type: physicochemical
Protocol: In order to determine the pH at which the formulation would show maximum stability, a kinetic degradation study was employed. pH of solutions ranging from 2-4, containing 0.1M each of the compound of formula II and tartrate buffer were stored at 75° C. At various time intervals, samples were taken and assayed for the compound.
The kinetic data obtained was plotted as a log of drug concentration versus time. The apparent first-order rate constants were calculated from the slopes of the linear regression lines fitted to log (C)=log (Co)[…] where C is drug concentration at time t, Co is the initial drug concentration and k is the apparent first-order rate constant.
The logarithm of the potency versus time in all cases produced linear plots. The apparent first-order rate constants were calculated from the slopes of the linear regression lines (not shown) and are presented in FIG. 1.
The ratio of the two organic vehicles, namely propylene glycol and alcohol were determined by making solutions of the compound of formula II in the vehicle and testing the stability at 75° C. Samples were removed after specified times and measured for potency.
FIG. 3 illustrates the stability of the compound of formula II in hydroalcoholic solution buffered at pH 3 by sodium tartrate. An identical stability study was conducted with a solution without buffering agent (FIG. 4).

pKa = assay type: physicochemical

CC(C)(CNC(=O)N1CCOCC1)NCC(O)COC(=O)c1ccc(O)c(O)c1 (centres unmarked) [Compound 12]
Potency (β-adrenergic receptor): 0.08 mg/kg/180 min

CC(C)(CNC(N)=O)NCC(O)COC(=O)c1ccccc1F (centres unmarked)
Solubility ([1]; Alcohol USP (EtOH)): 2.24 % w/w | Solubility ([1]; Polyethylene Glycol 200 USP (PEG)): 2.64 % w/w | Solubility ([1]; Propylene Glycol USP (PG)): 3.47 % w/w | Solubility ([1]; WFI (5%), EtOH (45%), PEG (50%)): 5.21 % w/w | Solubility ([1]; WFI (5%), EtOH (45%), PG (50%)): 7.20 % w/w | Solubility ([1]; WFI (5%), EtOH (95%)): 7.50 % w/w | Solubility ([1]; WFI (5%), PEG (95%)): 3.83 % w/w | Solubility ([1]; WFI (5%), PG (95%), read-out: Solubility): 56 mg/mL (≈ 171 mM) | Solubility ([1]; Water for Injection USP (WFI), read-out: Solubility): 507 mg/mL (≈ 1550 mM) | degraded at 168 h ([2]; formulated in the pharmaceutical composition): ~25% | increase in stability ([2]; formulated vs aqueous solution): three fold increase in stability | degraded at 168 h ([2]; aqueous solution (deionized water), aqueous solution): ~70%

CC(C)NCC(O)COc1cccc2ccccc12 (centres unmarked) [Propranolol, reference compound]
Potency (β-adrenergic receptor): 0.2 mg/kg/180 min | % I (percent inhibition of heart rate response to isoproterenol) (β-adrenergic receptor; dogs): 67 ± 6%

CC(C)(CNC(=O)C1CCCCC1)NCC(O)COC(=O)c1ccccc1F (centres unmarked) [Compound 6]
Potency (β-adrenergic receptor): 1.4 mg/kg/180 min

CC(C)(CNC(=O)C1CCCCC1)NCC(O)COC(=O)c1ccccc1F (centres unmarked) [Compound 7]
Potency (β-adrenergic receptor): 1.8 mg/kg/180 min | Recovery Time 50% (β-adrenergic receptor; dogs): 8 min | Recovery Time 80% (β-adrenergic receptor; 80% recovery from β-blockade after termination of infusion, dogs): 19 min | % I (percent inhibition of heart rate response to isoproterenol) (β-adrenergic receptor; dogs): 68%

CC(C)(CNC(N)=O)NCC(O)COC(=O)c1ccccc1F (centres unmarked) [compound of formula II, N-(1,1-Dimethyl-2-ureidoethyl)-2-hydroxy-3-(O-fluorobenzoyloxy) propylamine]
degraded at 168 h [3]: 10% | propylene glycol to alcohol ratio and degradation ([4]; FIG. 2): 1:1 ratio of the two substances minimizes degradation | rate of degradation (slope) ([4]; hydroalcoholic solution (15% propylene glycol, 15% alcohol) buffered at pH 3 by sodium tartrate): 0.0387 day⁻¹ | rate of degradation (slope) ([4]; hydroalcoholic solution (15% propylene glycol, 15% alcohol), unbuffered): 0.0709 day⁻¹ | stability of buffered relative to unbuffered preparation ([4]; pH 3 sodium tartrate vs no buffer): approximately twice as stable | pKa (pKa): 8.17

O=C(CC1CCCCC1)NCCNCC(O)COC(=O)c1ccccc1F (centres unmarked) [Compound 8]
Recovery Time 50% (β-adrenergic receptor; dogs): 3,4 min | % I (percent inhibition of heart rate response to isoproterenol) (β-adrenergic receptor; dogs): 43% and 55%

CC(=O)NCC(C)(C)NCC(O)COC(=O)c1ccccc1F (centres unmarked) [Compound 4]
Potency (β-adrenergic receptor): 2.7 mg/kg/180 min

CC(C)C(=O)NCC(C)(C)NCC(O)COC(=O)c1ccccc1F (centres unmarked) [Compound 5]
Potency (β-adrenergic receptor): 0.6 mg/kg/180 min

CCOC(=O)NCC(C)(C)NCC(O)COC(=O)c1ccccc1F (centres unmarked) [Compound 21]
Potency (β-adrenergic receptor): 6.5 ± 1.8 mg/kg/180 min

CC(C)(CNC(N)=O)NCC(O)COC(=O)c1ccccc1F (centres unmarked) [Compound 17]
Potency (β-adrenergic receptor): 0.7 mg/kg/180 min
